From patent US20110003777A1, “Methods of Treatment Employing Prolonged Continuous Infusion of Belinostat” (TOPOTARGET A/S, priority 2008, published 2011)

Tests used:
[1] = tested on: NYH: human small cell lung cancer; test: Clonogenic assay with increasing time of exposure, NYH; type: cell-based
Text: (§1) The data are summarised in FIG. 1, which is a graph of EC50 (μM), as determined using the clonogenic assay described above, as a function of exposure time (hours) for the four cells lines, P388 (diamonds), A2780 (circles), NYH (triangles), and L1210 (squares).

[2] = water at physiological pH; cited from earlier work
[3] = tested on: P388: mouse lymphocytic leukemia; test: Clonogenic assay with increasing time of exposure, P388; type: cell-based
Text: as §1

[4] = tested on: human patient with AML (acute myeloid leukemia); test: Continuous intravenous infusion in a human subject with AML; type: in vivo; details: for Blasts (absolute) / WBC / Platelets: peripheral blood
Text: The patient was a person with AML (acute myeloid leukemia). The patient had arterial hypertension since 1986, hypothyroidism since 1997 (treated with levothyroxin), anorexia, an enlarged spleen, night sweats since 2007, allergic exanthema since January 2008, and conjunctival hemorrhage from February 2007. AML was first diagnosed in December 2006. Prior treatment included four courses of decitabine from July 2007 to November 2007.

[5] = tested on: patients with various solid-tumours; details: intravenous bolus over 30 minutes, 150 to 1200 mg/m^2, solid tumours (Steele et al., 2008); cited from earlier work
patients = details: 30 minute intravenous bolus with standard dose carboplatin or paclitaxel (Sinha et al., 2007); cited from earlier work
[6] = tested on: A2780: human ovarian cancer; test: Clonogenic assay with increasing time of exposure, A2780; type: cell-based
Text: as §1

[7] = tested on: L1210: mouse lymphocytic leukemia; test: Clonogenic assay with increasing time of exposure, L1210; type: cell-based
Text: as §1

[8] = reported; cited from earlier work
[9] = Day 15, before starting the 2nd cycle

In the case of `O=C(/C=C/c1cccc(S(=O)(=O)Nc2ccccc2)c1)NO` [Belinostat™, (E)-N-hydroxy-3-(3-phenylsulfamoyl-phenyl)-acrylamide], the EC50 values ([1]; longer incubation (≧16 hours)) is given as “markedly reduced”, the “activity in clonogenic assay” value ([1]; short incubation times) is given as “weak activity” and the solubility in water [2] is given as “sparingly soluble”. The EC50 values ([3]; P388, longer incubation (≧16 hours)) was “markedly reduced”, the “activity in clonogenic assay” value ([3]; P388, short incubation times) was “weak activity” and the “tolerability of first infusion” value ([4]; 800 mg/m^2/d continuous i.v. infusion, first cycle) was “tolerated well”. The “time of infusion at interruption due to fever (39° C.), dyspnea, and cough” value ([4]; 800 mg/m^2/d, first cycle, planned 48 hours) was 37 h, the “tolerability of second cycle” value ([4]; 800 mg/m^2/d, full 48 hour cycle on Day 15 and Day 16) was “no reports of serious adverse events” and the “Platelet counts following second cycle” value ([4]; after second 48 hour cycle) was “moderately depressed”. The “tolerability and efficacy of continuous infusion” value ([4]; human, continuous infusion) was “feasible, well tolerated and efficacious”, the “Blasts (absolute)” value ([4]; 24 h, pre-treatment 2.4) was 5e+08 L⁻¹ and the WBC ([4]; 24 h, pre-treatment 3.8) was 1.3e+09 L⁻¹. For the same compound, the “Blasts (absolute)” value ([4]; 48 h, pre-treatment 2.4) was 2e+08 L⁻¹, the WBC ([4]; 48 h, pre-treatment 3.8) was 6e+08 L⁻¹ and the “Blasts (absolute)” value ([4]; Day 5) was 1.6e+09 L⁻¹. For the same compound, the Platelets ([4]; Day 5) was 8e+10 L⁻¹, the WBC ([4]; Day 5) was 2.8e+09 L⁻¹ and the “Blasts (absolute)” value ([4]; Day 8) was 2e+09 L⁻¹. The Platelets ([4]; Day 8) was 3.9e+10 L⁻¹, the WBC ([4]; Day 8) was 4.2e+09 L⁻¹ and the “Blasts (absolute)” value [4, 9] was 1.03e+10 L⁻¹. The Platelets [4, 9] was 7.3e+10 L⁻¹, the WBC [4, 9] was 1.21e+10 L⁻¹ and the “Blasts (absolute)” value ([4]; Day 19 (after 2nd cycle)) was 3.8e+09 L⁻¹. For the same compound, the Platelets ([4]; Day 19 (after 2nd cycle)) was 4.2e+10 L⁻¹, the WBC ([4]; Day 19 (after 2nd cycle)) was 4.9e+09 L⁻¹ and the “Blasts (absolute)” value ([4]; Day 22) was 5.6e+09 L⁻¹. The Platelets ([4]; Day 22) was 3.3e+10 L⁻¹, the WBC ([4]; Day 22) was 7.4e+09 L⁻¹ and the “Blasts (absolute)” value ([4]; Day 26) was 1.26e+10 L⁻¹. The Platelets ([4]; Day 26) was 3.4e+10 L⁻¹, the WBC ([4]; Day 26) was 1.57e+10 L⁻¹ and the maximum tolerated dose [5] was 1000 mg/m^2. For the same compound, the maximum tolerated dose (patients) was 1000 mg/m^2/d, the EC50 values ([6]; A2780, longer incubation (≧16 hours)) was “markedly reduced” and the “activity in clonogenic assay” value ([6]; A2780, short incubation times) was “weak activity”. The EC50 values ([7]; L1210, longer incubation (≧16 hours)) was “markedly reduced”, the “activity in clonogenic assay” value ([7]; L1210, short incubation times) was “weak activity” and the plasma half-life [8] was 47 to 86 min.
